# Measurements published in paper PMC10257182, “Discovery of senolytics using machine learning” (Nature Communications, 2023).
# pIC50: −log10 of the molar value. Where “and” joins values, the source holds several entries; their conditions need not be identical. Equal entries are not always repeated. Where two headings read alike, the source gives them in different places.
# Tests used:
# Type in all cases: cell-based, human
# [1] = system: senescent IMR90 ER:RAS cells (4-OHT-induced); assay: Nuclei count (Hoechst, high content imaging) senolytic assay, oncogene-induced senescence (OIS) model, senescent cells
# Description: To test for senolytic activity, we compared the effect of each compound on the total cell number (automated high content image-based analysis of total number of nuclei per well) in non-senescent and senescent IMR90 ER:RAS cultures treated with the top hits from the computational screen (Figs. 2e and 3a–d and Supplementary Fig. 4a–c). The drop in cell number compared to untreated controls is indicated by the nuclei count and reflects cell death[13],[15]. As positive control, we employed ouabain, a cardiac glycoside with well characterised senolytic activity.
# (§1) We performed experimental validation of the compounds with z-score > 8 (Fig. 2e). […] We employed two cellular models of senescence: one of OIS and a second one of TIS. For the OIS case, we utilised IMR90 ER:RAS cells with 4-OHT at 100 nM. […] For the TIS model, we used A549 cells with etoposide at 100 μM. The exposure of the cells to etoposide lasted 48 h, after which period the cells were cultivated for a further three days with normal media.
# (§2) IMR90 (CCL-186) human foetal lung fibroblasts and A549 (CCL-185) human lung adenocarcinoma cells were obtained from the American Type Culture Collection (ATCC, Manassas, VA). The cell lines were confirmed to be mycoplasma negative (Lonza MycoAlert, cat #LT07-118). IMR90 ER:RAS is a derivative of IMR90 cells expressing a switchable version of oncogenic H-Ras[84]. IMR90 ER:RAS and A549 cells were maintained in Dulbecco’s Modified Eagle Medium (DMEM, ThermoFisher) supplemented with foetal bovine serum (10%), L-glutamine (2 mM, ThermoFisher), and antibiotic-antimycotic solution (1%, ThermoFisher) and incubated under standard tissue culture conditions (37 °C and 5% CO2). For induction of the senescent phenotype, IMR90-ER:RAS cells were cultured in hydroxytamoxifen (4-OHT) (Sigma) added media at 100 nM final concentration. IMR90 were kept in culture for over 27 passages for replicative senescence. Cells were tested for mycoplasma on a regular basis.
# (§3) Cells were seeded (50 μL per well) into 384-well plates (IMR90 ER:RAS cells in Nunc Optical Bottom Polybase Microplates [#142761, Thermo Scientific, Rochester, NY] and A549 cells in CELLSTAR Cell Culture Microplates [#781091, Greiner Bio-One, Kremsmünster, Austria]). Cells were incubated under standard tissue culture conditions for 24 h before the addition of compounds. Passage 14 IMR90 ER:RAS cells were seeded at 1300 cells per well in the control condition, and at 1600 cells per well in the senescent case. Passage 34 A549 cells were seeded at 7000 cells per well in the control condition, and at 10,000 cells per well in the senescent case.
# (§4) Dose response plates were prepared with a DMSO control and a 10-point […] concentration range, and added to the compounds using a D300e digital dispenser (Tecan Trading AG, Switzerland) at a final concentration of between 10 μM and 10 nM. Every screened condition was carried out in triplicate. After 72 h of incubation with exposure to the compounds, cells were fixed by the addition of an equal volume of formaldehyde (8%, 50 μL; #BP531-500, Fisher Bioreagents, Fisher Scientific, Loughborough, Leicestershire) to the existing media, incubated at room temperature (30 min), and washed three times in phosphate-buffered saline (PBS). Cells were then permeabilised in Triton-X100 (0.1%, 50 μL) and incubated at room temperature (30 min) followed by three more washes with PBS.
# (§5) Cells were stained with Hoechst 33342 for nuclei count (excitation/emission wavelength at 387/447 […], DAPI channel, original concentration at 10 mg/ml, final concentration at 2 μg/ml; H1399, Molecular Probes, Eugene, OR). The staining solution was prepared in bovine serum albumin solution (10%). The staining solution was added to each well (30 μL) and incubated in the dark at room temperature (30 min), followed by three washes with PBS and no final aspiration. Plates were foil sealed.
# [2] = system: senescent A549 cells (etoposide-induced); assay: Nuclei count senolytic assay, therapy-induced senescence (TIS) model, senescent cells; conditions: Senescent cells, mean
# Procedure: (§6) We performed a second validation of the effectiveness of our machine learning models using a different stressor. We focused on therapy-induced senescence (TIS, Supplementary Fig. 6a), where human epithelial cancerous cells (A549) were induced to become senescent by addition of etoposide. Cells were treated with 100 μM etoposide for 48 h, followed by another three days of exposure to media in standard conditions.
# as §1, §2, §3, §4, §5
# (§7) Plates were imaged on an ImageXpress micro XLS (Molecular Devices, Eugene, OR) equipped with a robotic plate loader (Scara4, PAA, UK).
# [3] = system: non-senescent control A549 cells; assay: Nuclei count senolytic assay, TIS model, non-senescent control cells; conditions: Control cells, mean
# Procedure: as §6, §1, §2, §3, §4, §5, §7
smiles,measurement,setting,value
"Cc1c(NC(=O)OC[C@@H]2COCCN2)cn2ncnc(Nc3ccc4c(cnn4Cc4cccc(F)c4)c3)c12.Cl.Cl [BMS 599626 2HCL, BMS 599626 dihydrochloride]",% Cell Survival,"[1]; Senescent cells, log (dose) [M] -5, individual replicates, SUP FIG 4C",148.305% and 168.559% and 104.914%
same,% Cell Survival,"[1]; Senescent cells, log (dose) [M] -5.33, individual replicates, SUP FIG 4C",96.2712% and 179.476% and 125.714%
same,% Cell Survival,"[1]; Senescent cells, log (dose) [M] -5.66, individual replicates, SUP FIG 4C",153.051% and 117.467% and 95.5429%
same,% Cell Survival,"[1]; Senescent cells, log (dose) [M] -6, individual replicates, SUP FIG 4C",117.797% and 133.042% and 86.6286%
same,% Cell Survival,"[1]; Senescent cells, log (dose) [M] -6.33, individual replicates, SUP FIG 4C",137.458% and 98.5444% and 96.6857%
same,% Cell Survival,"[1]; Senescent cells, log (dose) [M] -6.66, individual replicates, SUP FIG 4C",136.441% and 92.5764% and 82.2857%
same,% Cell Survival,"[1]; Senescent cells, log (dose) [M] -7, individual replicates, SUP FIG 4C",136.102% and 95.3421% and 94.0571%
same,% Cell Survival,"[1]; Senescent cells, log (dose) [M] -7.33, individual replicates, SUP FIG 4C",122.034% and 101.601% and 79.4286%
same,% Cell Survival,"[1]; Senescent cells, log (dose) [M] -7.66, individual replicates, SUP FIG 4C",139.831% and 102.475% and 90.8571%
same,% Cell Survival,"[1]; Senescent cells, log (dose) [M] -8, individual replicates, SUP FIG 4C",151.017% and 98.69% and 92.6857%
same,Mean % Cell Survival,"[1]; Senescent, log (dose) [M] -5, 72 h, mean n=3 (Fig 3C)",140.593%
same,Mean % Cell Survival,"[1]; Senescent, log (dose) [M] -5.33, 72 h, mean n=3 (Fig 3C)",133.82%
same,Mean % Cell Survival,"[1]; Senescent, log (dose) [M] -5.66, 72 h, mean n=3 (Fig 3C)",122.02%
same,Mean % Cell Survival,"[1]; Senescent, log (dose) [M] -6, 72 h, mean n=3 (Fig 3C)",112.489%
same,Mean % Cell Survival,"[1]; Senescent, log (dose) [M] -6.33, 72 h, mean n=3 (Fig 3C)",110.896%
same,Mean % Cell Survival,"[1]; Senescent, log (dose) [M] -6.66, 72 h, mean n=3 (Fig 3C)",103.768%
same,Mean % Cell Survival,"[1]; Senescent, log (dose) [M] -7, 72 h, mean n=3 (Fig 3C)",108.5%
same,Mean % Cell Survival,"[1]; Senescent, log (dose) [M] -7.33, 72 h, mean n=3 (Fig 3C)",101.021%
same,Mean % Cell Survival,"[1]; Senescent, log (dose) [M] -7.66, 72 h, mean n=3 (Fig 3C)",111.054%
same,Mean % Cell Survival,"[1]; Senescent, log (dose) [M] -8, 72 h, mean n=3 (Fig 3C)",114.131%
same,% Cell Survival,"[1]; Senescent, log (dose) [M] -5",90.7857%
same,% Cell Survival,"[1]; Senescent, log (dose) [M] -5.33",83.9286%
same,% Cell Survival,"[1]; Senescent, log (dose) [M] -5.66",68.2857%
same,% Cell Survival,"[1]; Senescent, log (dose) [M] -6",92.9286%
same,% Cell Survival,"[1]; Senescent, log (dose) [M] -6.33",86.7857%
same,% Cell Survival,"[1]; Senescent, log (dose) [M] -6.66",103.929%
same,% Cell Survival,"[1]; Senescent, log (dose) [M] -7",113.571%
same,% Cell Survival,"[1]; Senescent, log (dose) [M] -7.33",119.214%
same,% Cell Survival,"[1]; Senescent, log (dose) [M] -7.66",109.286%
same,% Cell Survival,"[1]; Senescent, log (dose) [M] -8",117.714%
same,Mean % Cell Survival,[2]; log (dose) [M] -5,90.7857%
same,Mean % Cell Survival,[2]; log (dose) [M] -5.33,83.9286%
same,Mean % Cell Survival,[2]; log (dose) [M] -5.66,68.2857%
same,Mean % Cell Survival,[2]; log (dose) [M] -6,92.9286%
same,Mean % Cell Survival,[2]; log (dose) [M] -6.33,86.7857%
same,Mean % Cell Survival,[2]; log (dose) [M] -6.66,103.929%
same,Mean % Cell Survival,[2]; log (dose) [M] -7,113.571%
same,Mean % Cell Survival,[2]; log (dose) [M] -7.33,119.214%
same,Mean % Cell Survival,[2]; log (dose) [M] -7.66,109.286%
same,Mean % Cell Survival,[2]; log (dose) [M] -8,117.714%
same,Mean % Cell Survival,[3]; log (dose) [M] -5,104.732%
same,Mean % Cell Survival,[3]; log (dose) [M] -5.33,111.851%
same,Mean % Cell Survival,[3]; log (dose) [M] -5.66,123.214%
same,Mean % Cell Survival,[3]; log (dose) [M] -6,110.134%
same,Mean % Cell Survival,[3]; log (dose) [M] -6.33,107.884%
same,Mean % Cell Survival,[3]; log (dose) [M] -6.66,104.478%
same,Mean % Cell Survival,[3]; log (dose) [M] -7,103.285%
same,Mean % Cell Survival,[3]; log (dose) [M] -7.33,102.917%
same,Mean % Cell Survival,[3]; log (dose) [M] -7.66,99.9891%
same,Mean % Cell Survival,[3]; log (dose) [M] -8,98.951%
"C[C@@H]1O[C@@H](O[C@H]2C[C@@H](O)[C@]3(CO)[C@H]4[C@H](O)C[C@]5(C)[C@@H](C6=CC(=O)OC6)CC[C@]5(O)[C@@H]4CC[C@]3(O)C2)[C@H](O)[C@H](O)[C@H]1O [Ouabain, ouabain, reference compound]",viability at 10 µM,"[1]; Homo sapiens, IMR-90, 72 h, Senescent, log (dose) [M] -5, 72 h, mean n=3 (Fig 3C), read-out: Mean % Cell Survival",2.57%
same,viability at 4.677 µM,"[1]; Homo sapiens, IMR-90, 72 h, Senescent, log (dose) [M] -5.33, 72 h, mean n=3 (Fig 3C), read-out: Mean % Cell Survival",2.79%
same,viability at 2.188 µM,"[1]; Homo sapiens, IMR-90, 72 h, Senescent, log (dose) [M] -5.66, 72 h, mean n=3 (Fig 3C), read-out: Mean % Cell Survival",3.51%
same,viability at 1 µM,"[1]; Homo sapiens, IMR-90, 72 h, Senescent, log (dose) [M] -6, 72 h, mean n=3 (Fig 3C), read-out: Mean % Cell Survival",4.22%
same,viability at 0.4677 µM,"[1]; Homo sapiens, IMR-90, 72 h, Senescent, log (dose) [M] -6.33, 72 h, mean n=3 (Fig 3C), read-out: Mean % Cell Survival",4.07%
same,viability at 0.2188 µM,"[1]; Homo sapiens, IMR-90, 72 h, Senescent, log (dose) [M] -6.66, 72 h, mean n=3 (Fig 3C), read-out: Mean % Cell Survival",2.69%
same,viability at 0.1 µM,"[1]; Homo sapiens, IMR-90, 72 h, Senescent, log (dose) [M] -7, 72 h, mean n=3 (Fig 3C), read-out: Mean % Cell Survival",4.75%
same,viability at 0.04677 µM,"[1]; Homo sapiens, IMR-90, 72 h, Senescent, log (dose) [M] -7.33, 72 h, mean n=3 (Fig 3C), read-out: Mean % Cell Survival",11.8%
same,viability at 0.02188 µM,"[1]; Homo sapiens, IMR-90, 72 h, Senescent, log (dose) [M] -7.66, 72 h, mean n=3 (Fig 3C), read-out: Mean % Cell Survival",73%
same,viability at 0.01 µM,"[1]; Homo sapiens, IMR-90, 72 h, Senescent, log (dose) [M] -8, 72 h, mean n=3 (Fig 3C), read-out: Mean % Cell Survival",89.4%
same,viability at 10 µM,"[1]; Homo sapiens, IMR-90, senescence cells, log (dose) [M] -5, read-out: % Cell Survival",2.5%
same,viability at 4.677 µM,"[1]; Homo sapiens, IMR-90, senescence cells, log (dose) [M] -5.33, read-out: % Cell Survival",2.14%
same,viability at 2.188 µM,"[1]; Homo sapiens, IMR-90, senescence cells, log (dose) [M] -5.66, read-out: % Cell Survival",4.05%
same,viability at 1 µM,"[1]; Homo sapiens, IMR-90, senescence cells, log (dose) [M] -6, read-out: % Cell Survival",4.29%
same,viability at 0.4677 µM,"[1]; Homo sapiens, IMR-90, senescence cells, log (dose) [M] -6.33, read-out: % Cell Survival",5.48%
same,viability at 0.2188 µM,"[1]; Homo sapiens, IMR-90, senescence cells, log (dose) [M] -6.66, read-out: % Cell Survival",3.1%
same,viability at 0.1 µM,"[1]; Homo sapiens, IMR-90, senescence cells, log (dose) [M] -7, read-out: % Cell Survival",4.88%
same,viability at 0.04677 µM,"[1]; Homo sapiens, IMR-90, senescence cells, log (dose) [M] -7.33, read-out: % Cell Survival",11.2%
same,viability at 0.02188 µM,"[1]; Homo sapiens, IMR-90, senescence cells, log (dose) [M] -7.66, read-out: % Cell Survival",70.8%
same,viability at 0.01 µM,"[1]; Homo sapiens, IMR-90, senescence cells, log (dose) [M] -8, read-out: % Cell Survival",86.1%
same,pIC50,"[1]; Homo sapiens, IMR-90, OIS model, 4-OHT-induced IMR90 ER:RAS, nuclei count, 72 h",7.55
same,dose showing the clearest / optimal senolytic effect,"[1]; OIS IMR90 ER:RAS, Hoechst nuclei count, marginal effect on normal cells",46.4 nM
